Results: US9642860B2, “Combinations of corroles and statins” (Technion Research & Development Foundation Limited, priority 2011, dated 2017)

What was measured:
[1] = molecular target: T1, HMG-CoA reductase (HMGCR) (Homo sapiens, UniProt P04035); assay: HMG-CoA reductase-catalyzed reaction inhibition (CoA byproduct by HPLC); format: biochemical; conditions: read-out: Inhibition Percent
T1 sequence (P04035 426-888 limits assumed): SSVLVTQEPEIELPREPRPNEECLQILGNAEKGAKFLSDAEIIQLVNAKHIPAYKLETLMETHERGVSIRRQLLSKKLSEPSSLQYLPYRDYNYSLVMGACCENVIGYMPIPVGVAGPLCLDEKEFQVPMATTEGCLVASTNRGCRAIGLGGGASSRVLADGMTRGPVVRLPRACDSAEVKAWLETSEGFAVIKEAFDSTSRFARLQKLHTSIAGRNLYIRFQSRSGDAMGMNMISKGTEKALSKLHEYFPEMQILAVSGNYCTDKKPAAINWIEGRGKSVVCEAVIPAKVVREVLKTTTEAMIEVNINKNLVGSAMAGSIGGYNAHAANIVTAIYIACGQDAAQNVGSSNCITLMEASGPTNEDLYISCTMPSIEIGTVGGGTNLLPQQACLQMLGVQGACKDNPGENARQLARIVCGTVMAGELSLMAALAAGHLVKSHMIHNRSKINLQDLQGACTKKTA
Protocol: The effects of 1-Fe and statins fluvastatin and pravastatin alone and in combination on mevalonic acid production were tested using the following in vitro method.
Substrates of the HMGCR catalyzed reaction, NADPH (400 μM] and HMGCR (200 μM) were mixed in activity buffer comprising 100 mM sodium phosphate buffer, 1 mM ethylenediaminetetraacetic acid (EDTA), 10 mM dithiothreitol, 2% dimethyl sulfoxide, and 1 mM magnesium sulphate, the mixture having a pH of 6.8. 1-Fe, PS, or FS (alone or as a corrole statin combination) were added to the substrate mixture at various concentrations, followed by addition of HMGCR (0.48 μM). Reactions were then incubated at 37° C. for 15 minutes, followed by injection of 80 μl (microliter) to a reverse phase GraceSmart RP18 high performance liquid chromatography column (HPLC). […] As mevalonate concentration is difficult to identify in reaction mixture because it has no absorbance in the UV range, the yield of each reaction was calculated from the amount of CoA byproduct formed in the reaction after subtracting the baseline amount of CoA present as an impurity in the commercial HMG-CoA determined by injecting the substrate mixture alone. The inhibition percentage was calculated from the yield of each reaction relative to the yield of the enzymatic reaction without the addition of inhibitor.

J774.A1 macrophages = assay: Cholesterol biosynthesis model: acetate incorporation into cholesterol in macrophages; format: cell-based, Murine; conditions: 24 h incubation
From the text: Accumulation of cholesterol within arterial macrophages is a step in the development of atherosclerosis (M. Aviram 2004). Statins can lower the levels of cholesterol biosynthesis in arterial macrophages. The cholesterol biosynthesis model which was employed determined the effect of various agents (pravastatin alone, fluvastatin alone, 1-Fe alone in various concentrations, 1-Fe in combination with pravastatin and 1-Fe in combination with fluvastatin) on reduction of cholesterol biosynthesis in macrophages.
Murine J774.A1 macrophages were cultured in DMEM (Dulbecco's Modified Eagle Medium) containing 5% FCS (fetal calf serum) in a humidified incubator. […] The effect of different concentrations of 1-Fe on cholesterol biosynthesis from acetate and on 1-Fe cellular uptake were determined by incubating J774.A1 macrophages for 24 h (hours) with 0, 5, 20 or 50 μM (micromolar) of 1-Fe. Intracellular corrole concentrations were then determined by a chemiluminescent method, and cholesterol biosynthesis was assayed by measuring acetate incorporation into cholesterol. […] Unesterified cholesterol spots were visualized by iodine vapor (using appropriate standard), scraped into scintillation vials and counted in a β-counter. 0.1 M (molar) NaOH (sodium hydroxide) was added to the remains of the cells, and cellular proteins were measured the following day by the Lowry method. […]

[2] = high dose 80 mg, over five years, compared to moderate dose statins; cited from earlier work

Which results are given for `CC(C)n1c(/C=C/C(O)CC(O)CC(=O)O)c(-c2ccc(F)cc2)c2ccccc21` (centres unmarked) [FS, fluvastatin]?
inhibition at 1 µM ([1]; FS 1 micromolar alone): 9%; reduction of macrophage biosynthesis of cholesterol (J774.A1 macrophages; 20 μM FS alone): 25%

Which results are given for `CC[C@H](C)C(=O)O[C@H]1C[C@H](O)C=C2C=C[C@H](C)[C@H](CC[C@@H](O)C[C@@H](O)CC(=O)O)[C@H]21` [PS, pravastatin]?
inhibition at 5 µM ([1]; PS 5 micromolar alone): 17%; reduction of macrophage biosynthesis of cholesterol (J774.A1 macrophages; 200 μM PS alone): 10%

For `CC(C)c1c(C(=O)Nc2ccccc2)c(-c2ccccc2)c(-c2ccc(F)cc2)n1CC[C@@H](O)C[C@@H](O)CC(=O)O` [atorvastatin], which “increase in the chance of developing Type 2 diabetes” value [2] is on record?
The value was 12%.
